These results are taken from ChEMBL document CHEMBL3045879, “Isolation of long-chain esters from the rhizome of Polygonatum verticillatum by potent tyrosinase inhibition” (Med Chem Res, 2013).

Molecules are shown by their SMILES.

The experiment has as its target T1, Tyrosinase (Agaricus bisporus, UniProt O42713).
T1 sequence (O42713 whole entry): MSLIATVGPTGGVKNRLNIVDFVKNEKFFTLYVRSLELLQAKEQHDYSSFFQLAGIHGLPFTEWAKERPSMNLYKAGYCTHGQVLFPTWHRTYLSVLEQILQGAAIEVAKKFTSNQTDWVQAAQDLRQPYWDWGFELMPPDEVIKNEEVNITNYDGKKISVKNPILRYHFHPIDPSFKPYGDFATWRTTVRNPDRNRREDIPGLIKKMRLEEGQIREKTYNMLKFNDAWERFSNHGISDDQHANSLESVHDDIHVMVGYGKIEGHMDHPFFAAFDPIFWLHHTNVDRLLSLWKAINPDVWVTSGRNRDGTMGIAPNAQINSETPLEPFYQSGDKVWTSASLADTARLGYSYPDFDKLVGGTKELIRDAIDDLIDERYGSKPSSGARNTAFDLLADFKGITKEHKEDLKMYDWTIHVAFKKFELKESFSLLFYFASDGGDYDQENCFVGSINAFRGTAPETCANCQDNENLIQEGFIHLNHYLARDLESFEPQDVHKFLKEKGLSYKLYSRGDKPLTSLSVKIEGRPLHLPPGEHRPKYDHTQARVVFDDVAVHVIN
The experiment can be described thus: Inhibition of Agaricus bisporus (mushroom) tyrosinase assessed as decrease in dopachrome formation using L-DOPA as substrate preincubated with enzyme for 10 min prior to substrate addition measured for 10 min by microplate reader analysis.

With `CCCCCCCCCCCCCCC(=O)OCCC` [PROPYL PENTADECANOATE], the IC50 worked out at 22.3 µM.

With `CCCCCCCCCCCCCCC(=O)OCC(O)CO` (configuration not stated) [2',3'-DIHYDROXY PROPYL PENTADECANOATE], the IC50 was found to be 9.45 µM.

The IC50 is the concentration that gives 50% inhibition.
